# Tested on: GBA2
# Assay: Labelling of GBA2 orthologue in zebrafish larvae homogenates
# Assay type: biochemical, zebrafish (Danio rerio)
# Conditions: 1 h at 37 °C; ABP 3 and 7 at 1 μM, ABP 4 and 5 at 2.5 μM
# Description: GBA2 orthologs are highly conserved among different species. […] The labelling capability of β-D-Araf aziridine ABPs toward GBA2 orthologs in these species was therefore evaluated. Homogenates of zebrafish larvae or mice brain homogenates were incubated with β-D-Araf ABPs 3–5 or broad-spectrum ABP 7 (Fig. 4).
# Fig. 4 Fluorescent gel images of selective labelling of GBA2 orthologues by β-D-Araf aziridine ABPs in different species. Cyclophellitol-aziridine ABP 7 (1 μM) and β-D-Araf ABPs (ABP 3 at 1 μM and ABP 4 and 5 at 2.5 μM) were incubated with homogenates of zebrafish (15 μg total protein) and mice brain (15 μg total protein) for 1 h at 37 °C. […]
# were transferred to nitrocellulose membrane for western blotting. Ponceau S staining was used to show total protein loading. […]
# 2.12 Reactivity of β-D-Araf aziridines towards GBA2 orthologue in other species β-D-Araf aziridine ABP 3-5 or ABP 7 was incubated with homogenates of zebrafish (Danio rerio) larvae or mice brain for 1 h at 37 °C. […] The zebrafish homogenates were passed through a desalting column (in the same way as described for the irreversibility evaluation above) to remove interference from biological pigments when scanning at λEX 473 nm and λEM ≥ 510 nm for BODIPY green fluorescence. […]
smiles,measurement,value
CN1/C(=C/C=C/C=C/C2=[N+](CCCCCC(=O)NCc3cn(CCCCCCCCN4[C@@H]5[C@H](CO)[C@@H](O)[C@H](O)[C@@H](O)[C@@H]54)nn3)c3ccccc3C2(C)C)C(C)(C)c2ccccc21 (stereo partly shown) [ABP 7],Labelling selectivity in zebrafish larvae homogenates,show cross-reactivity towards GBA1

# Reference: publication PMC11375437, “Selective labelling of GBA2 in cells with fluorescent β-D-arabinofuranosyl cyclitol aziridines” (Chemical Science, 2024)
